Results published in patent US9676778B2, “Substituted pyrrolo[2,3-b]pyrazines as JAK3 inhibitors” (PRINCIPIA BIOPHARMA INC., priority 2012, dated 2017).

Key:
MJ = assay: Tumor Cell Proliferation Assay; assay type: cell-based; settings: CTCL (Unknown), 72 hr
Protocol: (§1) Cells (SZ-4 CTCL cells) were plated at a density of 5000 cells/well (384 well plates). Cells were plated in DMEM culture media supplemented with 0.5% fetal bovine serum. Other tumor cells (e.g. NK-TCL, T-ALL) were plated at densities of 2000-10,000 cells/well in culture media (e.g. DMEM, RPMI), containing 1%-20% FBS, dependent on the growth requirements of the individual tumor cell line. Compounds were diluted in culture media using serial dilution yielding final concentrations with 0 (DMSO control) or concentrations ranging from 0.5 nM to 10 uM. For the CTCL cells, after 1 hr incubation, at 37° C. in 95% air, 5% CO2, cells were induced with 100 ng/ml IL-2 for 72 hr. For the other cell types, cells were incubated without further induction for 72 hr. Cell Titer-Glo reagent was then added to the cells, contents mixed for 2 min, incubated at room temperature for 10 min, then luminescence was determined using a microplate luminometer. The percent inhibition was calculated based on a DMSO control for no inhibition and plotted as a function of test compound concentration from which an IC50 value was calculated.

SZ-4 CTCL cells = assay: Tumor Cell Proliferation Assay; assay type: cell-based; settings: SZ-4, CTCL (Sézary syndrome); 100 ng/ml IL-2, 72 hr, Cell Titer-Glo
Protocol: as §1

HH = assay: Tumor Cell Proliferation Assay; assay type: cell-based; settings: Homo sapiens, CTCL (non MF, non Sézary syndrome), 72 hr
Protocol: as §1

KHG1 = assay: Tumor Cell Proliferation Assay; assay type: cell-based; settings: KHG1, NK-TCL; 72 hr
Protocol: as §1

SNK1 = assay: Tumor Cell Proliferation Assay; assay type: cell-based; settings: SNK1, NK-TCL; 72 hr
Protocol: as §1

HANK1 = assay: Tumor Cell Proliferation Assay; assay type: cell-based; settings: HANK1, NK-TCL; 72 hr
Protocol: as §1

H9 = assay: Tumor Cell Proliferation Assay; assay type: cell-based; settings: Homo sapiens; H9, CTCL (Sézary syndrome); 72 hr
Protocol: as §1

SNK6 = assay: Tumor Cell Proliferation Assay; assay type: cell-based; settings: SNK6, NK-TCL; 72 hr
Protocol: as §1

H78 = assay: Tumor Cell Proliferation Assay; assay type: cell-based; settings: H78, CTCL (Sézary syndrome); 72 hr
Protocol: as §1

NKS1 = assay: Tumor Cell Proliferation Assay; assay type: cell-based; settings: NKS1, NK-TCL; 72 hr
Protocol: as §1

Hut-102 = assay: Tumor Cell Proliferation Assay; assay type: cell-based; settings: Hut-102, CTCL (Mycosis fungoides); 72 hr
Protocol: as §1

JAK3 = target: T1, JAK3 (Homo sapiens, UniProt P52333); assay: Determination of Drug-Kinase Residence Time for JAK3 (TR-FRET tracer competition); assay type: binding; settings: 1.5 uM compound, 500 nM JAK3, from 1 hour through 6 hours
T1 construct: purchased Invitrogen PV3855
Protocol: The read-out for slow dissociation is the ability of the compound of interest to block binding of a high affinity fluorescent tracer molecule to the kinase active site, as detected using time-resolved fluorescence resonance energy transfer (TR-FRET). The experiment was conducted in a buffer consisting of 50 mM Hepes pH 7.5, 10 mM MgCl2, 0.01% Triton X-100, and 1 mM EGTA.
The first step of the procedure was incubation of 500 nM JAK3 (Invitrogen Cat. #PV3855) with 1.5 uM of a compound disclosed in Table 1 for 30 minutes in a volume of 10 uL. The mixture was then diluted 5-fold by mixture of 10 uL JAK3/cmpd with 40 uL buffer. A 10 uL volume of the diluted kinase/compound solution was then added to a well of a small volume 384 well plate (such as Greiner Cat. #784076). In order to probe for reversibility of the kinase-compound binding interaction, a competition solution containing both a high affinity fluorescent tracer and an antibody coupled to Europium was prepared. For JAK3, the competition solution contained 8 uM Tracer 236 (Invitrogen Cat. #PV5592), which is a proprietary high affinity ligand for JAK3 coupled to the fluorophore AlexaFluor 647. The competition solution also contained 80 nM of an Anti-GST antibody coupled to Europium which is designed to bind the GST purification tag in JAK3.
After addition of 10 uL of the competition solution to the Greiner plate, the mixture was incubated for one hour or greater to allow time for dissociation of non-covalent inhibitors and binding of the high affinity tracer. It was expected that covalent and slow dissociating inhibitors will block binding of the tracer while rapidly dissociating non-covalent inhibitors will not. Binding of the tracer to JAK3 was detected using TR-FRET between the Europium moiety of the Anti-GST antibody and the AlexaFluor 647 group of Tracer 236. Binding was evaluated using a Perkin Elmer Envision instrument (Model 2101) equipped with filters and mirrors compatible with LANCE-type TR-FRET experiments. Data were plotted at percentage of signal obtained in the absence of competitor compound. […]

[1] = tested on: collagen-induced arthritis; settings: Milici 2008; cited from earlier work
[2] = tested on: mixed lymphocyte reaction; settings: Kudlacz 2004; cited from earlier work
[3] = tested on: delayed-type hypersensitivity response; settings: Kudlacz 2004; cited from earlier work
psoriasis = settings: short-term study, Boy 2009; cited from earlier work
JAK3 protein = target: T2, JAK3 protein (Homo sapiens, UniProt P52333); assay: Reversibility of Binding (trypsin digestion, HPLC-MS/MS)
T2 sequence (P52333 1-1124): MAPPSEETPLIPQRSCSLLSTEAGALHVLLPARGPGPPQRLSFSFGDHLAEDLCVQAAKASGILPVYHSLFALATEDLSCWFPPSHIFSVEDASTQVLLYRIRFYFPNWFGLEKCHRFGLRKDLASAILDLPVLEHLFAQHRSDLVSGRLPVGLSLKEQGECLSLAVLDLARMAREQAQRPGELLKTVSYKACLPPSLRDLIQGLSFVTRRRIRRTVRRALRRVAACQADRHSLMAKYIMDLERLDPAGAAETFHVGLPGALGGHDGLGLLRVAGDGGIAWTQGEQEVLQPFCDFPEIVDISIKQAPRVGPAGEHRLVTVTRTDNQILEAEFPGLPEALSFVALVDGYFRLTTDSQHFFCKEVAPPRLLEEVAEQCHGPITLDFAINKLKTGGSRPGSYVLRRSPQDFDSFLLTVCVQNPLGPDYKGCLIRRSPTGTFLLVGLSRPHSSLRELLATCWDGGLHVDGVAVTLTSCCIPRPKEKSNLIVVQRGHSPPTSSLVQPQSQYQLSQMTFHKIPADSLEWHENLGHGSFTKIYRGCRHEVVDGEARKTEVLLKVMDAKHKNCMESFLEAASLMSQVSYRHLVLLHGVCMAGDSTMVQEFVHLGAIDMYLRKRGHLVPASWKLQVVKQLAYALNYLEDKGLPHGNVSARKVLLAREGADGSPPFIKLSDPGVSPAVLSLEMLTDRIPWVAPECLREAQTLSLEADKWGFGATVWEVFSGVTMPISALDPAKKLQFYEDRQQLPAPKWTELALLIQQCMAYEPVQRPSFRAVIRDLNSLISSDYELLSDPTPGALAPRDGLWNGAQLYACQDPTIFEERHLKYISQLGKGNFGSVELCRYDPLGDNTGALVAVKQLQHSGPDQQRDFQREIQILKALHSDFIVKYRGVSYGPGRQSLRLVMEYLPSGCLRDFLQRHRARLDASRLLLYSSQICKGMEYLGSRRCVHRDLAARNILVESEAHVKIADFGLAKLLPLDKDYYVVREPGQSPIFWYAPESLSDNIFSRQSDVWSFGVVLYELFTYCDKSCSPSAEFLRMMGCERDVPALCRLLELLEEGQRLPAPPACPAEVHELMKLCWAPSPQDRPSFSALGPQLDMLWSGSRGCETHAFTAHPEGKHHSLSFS
Protocol: The following approach was developed to differentiate compounds that form irreversible bonds with their targets, such as acrylamide compounds, from compound that bind reversibly. Reactions were prepared with the JAK3 protein target at a higher concentration than the compound of interest. The reactions were then digested with trypsin, disrupting proper folding of the target. […] The concentration of compound in solution was assessed both preceding and following perturbation using high performance liquid chromatography (HPLC) coupled to tandem mass spectrometry.

C=CC(=O)Nc1cccc(-c2cnc3[nH]cc(C(=O)NC(C)(C)C)c3n2)c1 [Compound 2, 2-(3-acrylamidophenyl)-N-(tert-butyl)-5H-pyrrolo[2,3-b]pyrazine-7-carboxamide]
IC50 (MJ): > 5000 nM | IC50 (SZ-4 CTCL cells): 56 nM | IC50 (HH): 2700 nM | IC50 (KHG1): 498 nM | IC50 (SNK1): 735 nM | IC50 (HANK1): 1870 nM | IC50 (H9): 450 nM | IC50 (SNK6): 8420 nM | IC50 (H78): 150 nM | IC50 (NKS1): 109 nM | IC50 (Hut-102): 104 nM | binding of Tracer 236 after pre-incubation with compound (JAK3): no increase

C[C@@H]1CCN(C(=O)CC#N)C[C@@H]1N(C)c1ncnc2[nH]ccc12 [CP-690,550]
effect in collagen-induced arthritis model [1]: blocks | effect on mixed lymphocyte reaction (MLR) [2]: blocks | effect on delayed-type hypersensitivity response (DTH) [3]: blocks | efficacy in psoriasis patients (psoriasis): demonstrated efficacy

C=CC(=O)Nc1cccc(-c2cnc3[nH]cc(C(=O)C(C)(C)C)c3n2)c1 [Compound 1, N-(3-(7-pivaloyl-5H-pyrrolo[2,3-b]pyrazin-2-yl)phenyl)acrylamide]
Compound in solution in the native state? (JAK3 protein; JAK3 at higher concentration than compound): no | Compound in solution in the denatured or digested state? (JAK3 protein; after digestion with trypsin): no | binding of Tracer 236 after pre-incubation with compound (JAK3): no increase

CN(C)CC=CC(=O)Nc1cccc(-c2cnc3[nH]cc(C(=O)NC(C)(C)C)c3n2)c1 [Compound 3, N-(tert-butyl)-2-(3-(4-(dimethylamino)but-2-enamido)phenyl)-5H-pyrrolo[2,3-b]pyrazine-7-carboxamide]
binding of Tracer 236 after pre-incubation with compound (JAK3): no increase
